Experimental findings from patent US20230373985A1 (Origenis Gmbh, priority 2020, published 2023) are described below.

Assay [1] addresses T1, wt human TYK2, catalytic site (Homo sapiens, UniProt P29597).
T1 construct: wt human TYK2, catalytic site; purchased SignalChem
T1 sequence (P29597 897-1176 limits assumed): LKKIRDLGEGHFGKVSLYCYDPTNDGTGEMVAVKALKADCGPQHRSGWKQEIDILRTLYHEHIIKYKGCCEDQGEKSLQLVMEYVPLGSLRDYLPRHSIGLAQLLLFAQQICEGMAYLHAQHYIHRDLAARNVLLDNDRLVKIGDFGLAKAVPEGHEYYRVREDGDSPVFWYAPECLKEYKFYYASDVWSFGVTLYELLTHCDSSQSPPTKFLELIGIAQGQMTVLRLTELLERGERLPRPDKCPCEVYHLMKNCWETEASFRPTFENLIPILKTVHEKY
In words: HTRF KinEASE assay, TYK2. The format is biochemical. As to conditions: 1 μM ATP; read-out: IC50, Activity Toward TYK2. In outline:
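Kinase reaction run at room temperature for at least 30 min: 2 nM TYK2 with 1 μM ATP, or 1 nM JAK2 with 100 μM ATP, each with 1 μM biotin-TK substrate. Phosphorylation detected by HTRF (60 min antibody/XL665) and evaluated from emission ratios.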
(In general: TR-FRET usually uses a lanthanide donor and a delayed reading to cut background.)

For assay [2], the target named is T2, wt human JAK1, catalytic site (Homo sapiens, UniProt P23458).
T2 construct: wt human JAK1, catalytic site; purchased ThermoFisher
In words: HTRF KinEASE assay, JAK1. The format is biochemical. The note with it: 2.5 μM ATP; read-out: IC50, Activity Toward JAK1. The gist of the method: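 Compounds in DMSO dilution were mixed with kinase, biotin-TK substrate and ATP and reacted for ≥30 min at room temperature. Detection reagents (antibody, streptavidin-XL665) were read 60 min later as HTRF, with emission ratios analysed per KinEASE protocol.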

Assay [3] concerns the target T3, wt human JAK2, catalytic site (Homo sapiens, UniProt O60674).
T3 construct: wt human JAK2, catalytic site; purchased SignalChem
The assay can be described thus: HTRF KinEASE assay, JAK2. The assay is classed as biochemical. As to conditions: assay format not given (Z'-LYTE or HTRF KinEASE); read-out: IC50, Activity Toward JAK2. As to the method:
Basic protocol for HTRF KinEASE assay (Cisbio/FRA) inhibitor studies involved two steps: • Enzymatic step: Addition of 4 μL of test compound in corresponding DMSO dilutions, 4 μL of kinase/substrate mixture, 2 μL of ATP into 384 well small volume plates. Incubation for at least 30 minutes at room temperature. • Detection step: Addition of 5 μL antibody and 5 μL streptavidin-XL665, read plate after 60 minutes. Data analysis of emission ratios according KinEASE assay protocol.
(§1) Kinase and assay components were adjusted to final concentrations according to kit protocol. For TYK2: 2 nM wt human TYK2, catalytic site (SignalChem/CAN), 1 μM HTRF KinEASE-TK Substrate-biotin, 1 μM ATP in 1× Kinase Buffer. For JAK1: 4 nM wt human JAK1, catalytic site (ThermoFisher/USA), 1 μM HTRF KinEASE-TK Substrate-biotin, 2.5 μM ATP in 1× Kinase Buffer. For JAK2: 1 nM wt human JAK2, catalytic site (SignalChem/CAN), 1 μM HTRF KinEASE-TK Substrate-biotin, 100 μM ATP in 1× Kinase Buffer.
as §1

Assay [4] deals with T4, wt human LRRK2, catalytic site (Homo sapiens, UniProt Q5S007).
T4 construct: 5 nM wt human LRRK2, catalytic site; purchased ThermoFisher
The assay can be described thus: TR-FRET LanthaScreen Eu Kinase Binding Assay, LRRK2 wt. As to conditions: one range stated for wt and G2019, read-out: IC50, Activity Toward LRRK2(Wt). The gist of the method:
(§2)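 Kinase Buffer A holding, as final levels, 8 nM full-length NUAK1, 2 nM Eu-anti-His antibody and 5 nM Tracer 236, or 5 nM LRRK2 catalytic site (wt or G2019S), 2 nM Eu-anti-GST and 10 nM Tracer 236. Compound added, then 1 h at room temperature before TR-FRET ratio readout.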

The target of assay [5] is T5, G2019S human LRRK2, catalytic site (Homo sapiens, UniProt Q5S007, G2019S).
T5 construct: G2019S human LRRK2, catalytic site; purchased ThermoFisher
The assay can be described thus: TR-FRET LanthaScreen Eu Kinase Binding Assay, LRRK2 G2019S. As to conditions: LRRK2(G2019); one range stated for wt and G2019; read-out: IC50, Activity Toward LRRK2(G2019). In outline: as §2

T2 sequence (P23458 875-1153 limits assumed): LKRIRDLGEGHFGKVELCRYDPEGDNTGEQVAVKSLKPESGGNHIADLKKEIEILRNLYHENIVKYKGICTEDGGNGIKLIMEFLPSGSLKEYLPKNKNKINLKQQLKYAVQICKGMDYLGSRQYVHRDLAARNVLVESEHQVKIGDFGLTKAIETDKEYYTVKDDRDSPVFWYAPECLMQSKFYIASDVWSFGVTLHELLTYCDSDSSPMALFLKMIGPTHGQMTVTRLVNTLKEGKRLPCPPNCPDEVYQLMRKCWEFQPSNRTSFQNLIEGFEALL
T3 sequence (O60674 849-1124 limits assumed): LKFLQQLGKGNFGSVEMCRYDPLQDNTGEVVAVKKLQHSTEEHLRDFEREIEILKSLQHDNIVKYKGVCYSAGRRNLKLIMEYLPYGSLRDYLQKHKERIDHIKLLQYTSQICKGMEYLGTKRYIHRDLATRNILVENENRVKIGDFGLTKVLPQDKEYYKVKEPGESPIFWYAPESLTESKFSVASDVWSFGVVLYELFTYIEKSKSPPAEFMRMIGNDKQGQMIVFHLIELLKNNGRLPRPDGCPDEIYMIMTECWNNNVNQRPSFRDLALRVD
T5 sequence (Q5S007 970-2527 G2019S limits assumed): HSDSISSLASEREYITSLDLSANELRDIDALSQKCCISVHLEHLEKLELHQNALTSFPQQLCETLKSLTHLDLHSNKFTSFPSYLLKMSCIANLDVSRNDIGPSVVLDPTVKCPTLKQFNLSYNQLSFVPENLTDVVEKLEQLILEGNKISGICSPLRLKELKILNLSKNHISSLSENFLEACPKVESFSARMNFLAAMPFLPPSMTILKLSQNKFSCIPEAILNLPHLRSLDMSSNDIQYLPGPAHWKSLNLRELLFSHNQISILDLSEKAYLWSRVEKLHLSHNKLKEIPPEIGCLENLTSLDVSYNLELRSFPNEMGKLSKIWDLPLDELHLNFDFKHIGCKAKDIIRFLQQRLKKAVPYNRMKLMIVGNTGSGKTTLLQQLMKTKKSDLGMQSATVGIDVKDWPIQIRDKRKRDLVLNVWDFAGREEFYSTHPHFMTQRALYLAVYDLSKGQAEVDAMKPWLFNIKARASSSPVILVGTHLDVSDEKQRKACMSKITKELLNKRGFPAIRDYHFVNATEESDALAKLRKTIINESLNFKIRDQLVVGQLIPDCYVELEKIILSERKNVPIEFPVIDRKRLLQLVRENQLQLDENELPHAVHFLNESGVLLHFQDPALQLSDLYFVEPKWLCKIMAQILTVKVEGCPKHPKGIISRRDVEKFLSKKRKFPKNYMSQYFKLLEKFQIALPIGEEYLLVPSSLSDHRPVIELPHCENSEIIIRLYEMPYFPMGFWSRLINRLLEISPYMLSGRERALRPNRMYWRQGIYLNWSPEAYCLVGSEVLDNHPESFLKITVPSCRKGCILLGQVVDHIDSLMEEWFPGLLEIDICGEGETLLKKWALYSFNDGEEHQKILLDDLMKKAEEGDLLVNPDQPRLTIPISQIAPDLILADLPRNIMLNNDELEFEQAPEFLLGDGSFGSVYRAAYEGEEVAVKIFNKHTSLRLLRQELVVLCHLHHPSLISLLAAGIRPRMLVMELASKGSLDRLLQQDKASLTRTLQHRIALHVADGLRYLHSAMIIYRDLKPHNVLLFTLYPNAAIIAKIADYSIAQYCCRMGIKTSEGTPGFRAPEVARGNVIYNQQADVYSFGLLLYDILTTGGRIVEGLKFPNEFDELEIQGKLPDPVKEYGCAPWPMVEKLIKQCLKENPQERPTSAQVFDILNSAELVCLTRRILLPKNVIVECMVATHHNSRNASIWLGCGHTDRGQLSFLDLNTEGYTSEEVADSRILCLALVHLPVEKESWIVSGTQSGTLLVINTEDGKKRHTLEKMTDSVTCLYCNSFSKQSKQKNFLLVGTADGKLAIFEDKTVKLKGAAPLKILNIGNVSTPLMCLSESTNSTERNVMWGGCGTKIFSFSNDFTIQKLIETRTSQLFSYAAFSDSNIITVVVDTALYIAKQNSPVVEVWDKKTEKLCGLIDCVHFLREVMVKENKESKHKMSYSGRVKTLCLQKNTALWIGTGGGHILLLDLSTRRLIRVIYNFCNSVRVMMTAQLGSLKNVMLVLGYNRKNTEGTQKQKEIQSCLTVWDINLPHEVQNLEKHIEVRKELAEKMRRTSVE
T4 sequence (Q5S007 970-2527 limits assumed): as the sequence (Q5S007 970-2527 G2019S limits assumed) above, with S1050G counted along it

Usually IC50 stands for the concentration that inhibits the measured activity by half. On to `CN1CCC(Oc2ccc(Nc3nn(-c4c(Cl)cccc4Cl)nc3C(N)=O)cc2)CC1` [compound 114, 2-(2,6-dichlorophenyl)-5-((4-((1-methylpiperidin-4-yl)oxy)phenyl)amino)-2H-1,2,3-triazole-4-carboxamide], for which the half-maximal inhibitory concentration (IC50) in assay [1] is less than 10 nM; in assay [2], less than 10 nM; in assay [3] it was 100 to 1000 nM.
`CC(C)n1cnnc1-c1ccc(Nc2nn(-c3c(Cl)cccc3Cl)nc2C(N)=O)cc1` [compound 116, 2-(2,6-dichlorophenyl)-5-((4-(4-isopropyl-4H-1,2,4-triazol-3-yl)phenyl)amino)-2H-1,2,3-triazole-4-carboxamide]: the half-inhibitory concentration (IC50) was less than 10 nM in assay [1], 100 to 1000 nM in assay [4], 100 to 1000 nM in assay [5] and 100 to 1000 nM in assay [3].
Turning to `Cn1cnnc1-c1ccc(Nc2nn(-c3c(Cl)cccc3Cl)nc2C(N)=O)cc1` [compound 117, 2-(2,6-dichlorophenyl)-5-((4-(4-methyl-4H-1,2,4-triazol-3-yl)phenyl)amino)-2H-1,2,3-triazole-4-carboxamide], the IC50 in assay [1] lay in the range of 10 to 100 nM; in assay [2], 10 to 100 nM; in assay [3] it was 100 to 1000 nM.
For the compound `COCCCNC(=O)c1ccc(Nc2nn(-c3c(Cl)cccc3Cl)nc2C(N)=O)cc1` [compound 119, 2-(2,6-dichlorophenyl)-5-((4-((3-methoxypropyl)carbamoyl)phenyl)amino)-2H-1,2,3-triazole-4-carboxamide], the IC50 in assay [1] lay within 10 to 100 nM; in assay [2], 10 to 100 nM; in assay [3], 100 to 1000 nM.
`NC(=O)c1nn(-c2c(Cl)cccc2Cl)nc1Nc1ccc(C(=O)N2CC(O)C2)cc1` [compound 124, 2-(2,6-dichlorophenyl)-5-((4-(3-hydroxyazetidine-1-carbonyl)phenyl)amino)-2H-1,2,3-triazole-4-carboxamide]: the IC50 in assay [1] is less than 10 nM; in assay [2], 10 to 100 nM; in assay [3], 100 to 1000 nM.
The like results for `NC(=O)c1nn(-c2c(Cl)ccc(F)c2Cl)nc1Nc1ccc(C(=O)N2CCOCC2)cc1` [compound 138, 2-(2,6-dichloro-3-fluorophenyl)-5-((4-(morpholine-4-carbonyl)phenyl)amino)-2H-1,2,3-triazole-4-carboxamide] were, in that order, 10 to 100 nM, less than 10 nM and 100 to 1000 nM.
For `NC(=O)c1nn(-c2c(Cl)ccc(F)c2Cl)nc1Nc1ccc(C(=O)N2CC[C@@H](F)C2)cc1` [compound 145, (R)-2-(2,6-dichloro-3-fluorophenyl)-5-((4-(3-fluoropyrrolidine-1-carbonyl)phenyl)amino)-2H-1,2,3-triazole-4-carboxamide], in that order: 10 to 100 nM, less than 10 nM and 100 to 1000 nM.
For `NC(=O)c1nn(-c2c(F)ccc(F)c2Cl)nc1Nc1ccc(C(=O)N2CC[C@@H](F)C2)cc1` [compound 147, (R)-2-(2-chloro-3,6-difluorophenyl)-5-((4-(3-fluoropyrrolidine-1-carbonyl)phenyl)amino)-2H-1,2,3-triazole-4-carboxamide], in that order: 10 to 100 nM, less than 10 nM and 100 to 1000 nM.
As for `N#Cc1cccc(Cl)c1-n1nc(Nc2ccc(C(=O)N3CC[C@@H](F)C3)cc2)c(C(N)=O)n1` [compound 162, (R)-2-(2-chloro-6-cyanophenyl)-5-((4-(3-fluoropyrrolidine-1-carbonyl)phenyl)amino)-2H-1,2,3-triazole-4-carboxamide], the IC50 in assay [1] was less than 10 nM; in assay [2], 10 to 100 nM; in assay [3], 100 to 1000 nM.
In the case of `NC(=O)c1nn(-c2c(Cl)cccc2Cl)nc1Nc1ccc(C(=O)N2CCS(=O)(=O)CC2)cc1` [compound 163, 2-(2,6-dichlorophenyl)-5-((4-(1,1-dioxidothiomorpholine-4-carbonyl)phenyl)amino)-2H-1,2,3-triazole-4-carboxamide], the results for the IC50 in assay [1], in assay [2] and in assay [3] were less than 10 nM, less than 10 nM and 100 to 1000 nM, respectively.
As to `N#Cc1cccc(F)c1-n1nc(Nc2ccc(C(=O)N3CC[C@@H](F)C3)cc2)c(C(N)=O)n1` [compound 164, (R)-2-(2-cyano-6-fluorophenyl)-5-((4-(3-fluoropyrrolidine-1-carbonyl)phenyl)amino)-2H-1,2,3-triazole-4-carboxamide], the IC50 in assay [1] lay within 10 to 100 nM; in assay [2], 10 to 100 nM; in assay [3], 100 to 1000 nM.
In the case of `NC(=O)c1nn(-c2c(Cl)ccc(F)c2F)nc1Nc1ccc(C(=O)N2CC[C@@H](F)C2)cc1` [compound 167, (R)-2-(6-chloro-2,3-difluorophenyl)-5-((4-(3-fluoropyrrolidine-1-carbonyl)phenyl)amino)-2H-1,2,3-triazole-4-carboxamide], the IC50 lay in the range of 10 to 100 nM in assay [1], 10 to 100 nM in assay [2] and 100 to 1000 nM in assay [3].
With `N=S1(=O)CCN(C(=O)c2ccc(Nc3nn(-c4c(Cl)cccc4Cl)nc3C(N)=O)cc2)CC1` [compound 169, 2-(2,6-dichlorophenyl)-5-((4-(1-imino-1-oxidothiomorpholine-4-carbonyl)phenyl)amino)-2H-1,2,3-triazole-4-carboxamide], the IC50 in assay [1] is less than 10 nM; in assay [2], less than 10 nM; in assay [3] it was 100 to 1000 nM.
Take `CN=S1(=O)CCN(C(=O)c2ccc(Nc3nn(-c4c(Cl)cccc4Cl)nc3C(N)=O)cc2)CC1` [compound 171, 2-(2,6-dichlorophenyl)-5-((4-(1-(methylimino)-1-oxidothiomorpholine-4-carbonyl)phenyl)amino)-2H-1,2,3-triazole-4-carboxamide]: the IC50 is less than 10 nM in assay [1], less than 10 nM in assay [2] and 100 to 1000 nM in assay [3].
Take `NC(=O)c1nn(-c2c(Cl)cccc2Cl)cc1Nc1ccc(-c2nncn2CC(F)(F)F)cc1` [compound 210, 1-(2,6-dichlorophenyl)-4-((4-(4-(2,2,2-trifluoroethyl)-4H-1,2,4-triazol-3-yl)phenyl)amino)-1H-pyrazole-3-carboxamide]: the IC50 was 10 to 100 nM in assay [1], 100 to 1000 nM in assay [2] and 100 to 1000 nM in assay [3].
`Cn1nnnc1-c1ccc(Nc2cn(-c3c(Cl)cccc3Cl)nc2C(N)=O)cc1` [compound 238, 1-(2,6-dichlorophenyl)-4-((4-(1-methyl-1H-tetrazol-5-yl)phenyl)amino)-1H-pyrazole-3-carboxamide]: the IC50 in assay [1] was less than 10 nM; in assay [2], 10 to 100 nM; in assay [3], 100 to 1000 nM.
For `NC(=O)c1nn(-c2c(Cl)cccc2Cl)cc1Nc1ccc(C(=O)N2CCS(=O)(=O)CC2)cc1` [compound 451, 1-(2,6-dichlorophenyl)-4-((4-(1,1-dioxidothiomorpholine-4-carbonyl)phenyl)amino)-1H-pyrazole-3-carboxamide], in that order: less than 10 nM, less than 10 nM and 100 to 1000 nM.
For `N#Cc1cccc(Cl)c1-n1cc(Nc2ccc(C(=O)N3CCS(=O)(=O)CC3)cc2)c(C(N)=O)n1` [compound 457, 1-(2-chloro-6-cyanophenyl)-4-((4-(1,1-dioxidothiomorpholine-4-carbonyl)phenyl)amino)-1H-pyrazole-3-carboxamide], in that order: less than 10 nM, 10 to 100 nM and 100 to 1000 nM.
